Measurements reported in PMC11301756, “The crystal structure of Shethna protein II (FeSII) from Azotobacter vinelandii suggests a domain swap” (Acta Crystallographica Section D: Structural Biology, 2024).

T1: FeSII (Shethna protein II) (Azotobacter vinelandii, UniProt Q44501)
T1 construct: synthetic gene in pRSET-A, no tag, expressed in E. coli KRX; about 13 kDa; dimer in solution; prepared aerobically (oxidized)
T1 sequence (Q44501 2-122 limits assumed): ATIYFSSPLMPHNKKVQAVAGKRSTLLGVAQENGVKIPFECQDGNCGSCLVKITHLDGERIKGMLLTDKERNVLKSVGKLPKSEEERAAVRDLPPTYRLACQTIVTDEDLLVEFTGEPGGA

B1: Shethna protein II (FeSII) from Azotobacter vinelandii (natural protein, UniProt Q44501 1-122, looked up)
chain: MATIYFSSPLMPHNKKVQAVAGKRSTLLGVAQENGVKIPFECQDGNCGSCLVKITHLDGERIKGMLLTDKERNVLKSVGKLPKSEEERAAVRDLPPTYRLACQTIVTDEDLLVEFTGEPGGA
notes: FeSII (Shethna protein II), adrenodoxin-type 2Fe-2S ferredoxin of Azotobacter vinelandii, locus AVIN_39700; synthetic gene in pRSET-A with no tag, amplified with primers from the start codon (ATGGCGACGATCTATTTCAGCAGC) to the stop codons; Carries a 2Fe-2S cluster; prepared aerobically (oxidized); Five copies in the asymmetric unit of the crystal; also called FeSII protein; source: E. coli …

Experiments:
[1] = biological target: T1, FeSII (Shethna protein II); assay: X-ray crystal structure (Fe-SAD); assay type: binding; settings: intrinsic cluster, protein prepared and crystallized aerobically (oxidized); pH 8.0; five copies in asymmetric unit, one closed and four open (domain-swapped)
[2] = biological target: the molecule itself; assay: crystal structure; FeSII alone, hanging-drop vapour diffusion, 0.1 M HEPES pH 8.0, 0.2 M sodium citrate, 24% PEG 3350, 2% 1-butanol, 40 mg/ml FeSII; P2(1)2(1)2, 1.65 Å, Fe-SAD; dimers between chains and crystallographic symmetry mates

Molecule	X-ray crystal structure (Fe-SAD), 1.65 A [1]	binding result [2]
[S]1[Fe][S][Fe]1 [2Fe–2S cluster]	In chain E (salmon) in the crystal, the lid helix from chain E covers the iron–sulfur cluster	–
B1	–	binds
